Experiment [1] concerns the target T1, 5-Lipoxygenase enzyme from RBL-1 cells (Rattus norvegicus, UniProt P12527).
T1 construct: prepared as a 10,000 g supernatant from RBL-1 cells; endogenous in cells; host or cells: RBL-1 cells (10,000 g supernatant)
T1 sequence (P12527 1-673): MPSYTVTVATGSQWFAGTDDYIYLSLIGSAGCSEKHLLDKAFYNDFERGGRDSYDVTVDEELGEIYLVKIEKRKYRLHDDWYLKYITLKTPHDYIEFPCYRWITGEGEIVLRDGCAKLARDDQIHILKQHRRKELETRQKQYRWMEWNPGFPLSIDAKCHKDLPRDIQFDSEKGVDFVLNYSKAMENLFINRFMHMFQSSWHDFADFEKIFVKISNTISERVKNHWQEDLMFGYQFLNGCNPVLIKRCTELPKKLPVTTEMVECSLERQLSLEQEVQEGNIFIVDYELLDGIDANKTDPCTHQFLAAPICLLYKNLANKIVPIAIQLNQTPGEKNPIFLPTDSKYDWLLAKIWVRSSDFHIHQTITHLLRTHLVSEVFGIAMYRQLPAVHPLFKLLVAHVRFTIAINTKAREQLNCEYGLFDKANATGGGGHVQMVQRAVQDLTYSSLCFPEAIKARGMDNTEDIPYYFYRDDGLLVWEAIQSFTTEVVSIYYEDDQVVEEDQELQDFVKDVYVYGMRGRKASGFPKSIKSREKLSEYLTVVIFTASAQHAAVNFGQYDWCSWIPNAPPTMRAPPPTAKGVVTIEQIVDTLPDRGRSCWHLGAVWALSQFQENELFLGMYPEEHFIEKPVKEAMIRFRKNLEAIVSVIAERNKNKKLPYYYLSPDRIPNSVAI
Nature of the experiment: RBL-1 5-lipoxygenase screen (cell free). It counts as biochemical. To be noted: read-out: percentage inhibition of 5-lipoxygenase. The method, then:
RBL-1 5-LIPOXYGENASE SCREEN
5-Lipoxygenase enzyme was prepared as a 10,000 g supernatant from RBL-1 cells by the method of Jakschik [Jakschik, B. A., F. F. Sun, L. M. Lee, and M. M. Steinhoff, 1980, Biochem. Biophys. Res. Comm. 95, 103]. The 10,000 g supernatant was diluted with homogenization buffer to the equivalent of 1.5-2.5×10^7 cells. ml^-1 and made 2 mM with respect to CaCl2. Aliquots of 0.5 ml were then dispensed into tubes, and incubated at 29° C. with 5 μl ethanol or compound in ethanol at the desired concentration for 2 min. Then […] arachidonic acid was added in buffer to give a final concentration of 6.3 μM and 0.2 μCi per incubation, and the reaction continued at 29° C. for 2 min. The reaction was terminated by adding 1 ml of acetone and cooling on ice, 0.5 ml of ice-cold saline and 10 μl of 2N formic acid were added, and the mixture was extracted with 2×2 ml of chloroform. The extract was stored under N2 at -20° C. until analysis by chromatography. Activity was measured as the percentage of total radioactivity found in 5-HETE and 5,12-diHETE, and inhibition calculated as the decrease in formation of the sum of these two species in compound-treated incubates relative to control incubates.
This test is used to show inhibition of the 5-lipoxygenase enzyme in a mammalian RBL-1 cell free 5-lipoxygenase assay.

The test system of experiment [2] is carrageenin-induced pleurisy. The experiment can be described thus: Carrageenin-induced pleurisy in the rat. To be noted: dose of 25 mg/kg p.o., given 1 hour before and 24 and 48 hours after carrageenin. It is filed as in vivo. The method, then:
CARRAGEENIN-INDUCED PLEURISY IN THE RAT
This model of monocyte accumulation is based on the method of R. Vinegar, J. F. Truax, J. L. Selph and F. A. Voelker [Federation Proceeding 41, 2588-2595, 1982].
0.2 ml of a 2.0% solution of λ-carrageenin (Viscarin 402) in saline was injected intrapleurally in anaesthetised rats (wt. approx. 175-200 g). Compounds were administered 1 hour before carrageenin and at 24 and 48 hours after carrageenin. 72 hours after carrageenin injection, 4.0 ml of EDTA solution (5 g EDTA in 100 ml of 0.9% saline and 325 mg phenol red added together with saline to 1 liter) was injected intrapleurally after killing the animals, and the exudate removed with a syringe through the diaphragm. Exudate volume was measured spectrophotometrically (560 nm) and cellular content estimated with a DNA assay [Karsten U. and Wollenberger A. Anal. Biochem. 77, 464-470, 1977].
This test is used to indicate anti-inflammatory activity against carrageenin-induced pleurisy in the rat. The compound of Example 1 was active at a dose of 25 mg/kg (p.o.).

Counter-ions that a name gives are not always drawn.

Take `Cc1cc(C(C)(C)C)c(O)c2[nH]c(C(F)(F)F)nc12` [Example 1, 5-tert-Butyl-4-hydroxy-7-methyl-2-trifluoro-methylbenzimidazole]: the inhibition (in general, the drop in the measured response relative to a control, in per cent) at 1 µM in experiment [1] (1 μM concentration) was found to be 93%. For the same compound, the “anti-inflammatory activity against carrageenin-induced pleurisy in the rat” value in experiment [2] is given as “active”.

As for `Cc1ccc(O)c2[nH]c(C(F)(F)F)nc12` [Example 2, 4-Hydroxy-7methyl-2-trifluoromethylbenzimidazole hydrochloride hydrate (4:4:1)], the inhibition at 20 µM in experiment [1] (20 μM concentration) came to 68%.

The record behind these values is US4755525A, “2-(fluoroalkyl)-benzimidazoles as inhibitors of 5-lipoxygenase” (Beecham Group p.l.c., priority 1985, dated 1988).
